Source: ChEMBL document CHEMBL6074668 (J Med Chem, 2024)
Active and inactive are the calls of the source. The calls are words filed in the database; no cut-off is given here.

Columns and labels:
Type in all cases: functional, cell-based
[1] = biological target: T1, Kappa-type opioid receptor (Homo sapiens, UniProt P41145); test: Agonist activity at human kappa opioid receptor expressed in CHO-K1 cells assessed as inhibition of forskolin-stimulated cAMP accumulation by HitHunter assay based luminescence analysis
T1 sequence (P41145 whole entry): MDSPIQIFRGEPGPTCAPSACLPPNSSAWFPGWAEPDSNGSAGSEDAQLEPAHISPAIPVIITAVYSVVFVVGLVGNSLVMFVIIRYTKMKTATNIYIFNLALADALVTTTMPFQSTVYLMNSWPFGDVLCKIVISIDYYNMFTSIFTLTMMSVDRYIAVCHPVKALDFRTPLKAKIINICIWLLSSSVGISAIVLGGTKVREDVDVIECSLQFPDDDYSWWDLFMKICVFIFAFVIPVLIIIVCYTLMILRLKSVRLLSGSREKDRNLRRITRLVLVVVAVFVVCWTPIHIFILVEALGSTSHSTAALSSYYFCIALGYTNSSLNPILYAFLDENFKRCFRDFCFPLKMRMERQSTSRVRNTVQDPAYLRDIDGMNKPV

[2] = biological target: T1, Kappa-type opioid receptor; test: Agonist activity at human kappa opioid receptor expressed in CHO-K1 cells assessed as inhibition of forskolin-stimulated cAMP accumulation by HitHunter assay based luminescence analysis relative to control
Mu-type opioid receptor [3] = biological target: T2, Mu-type opioid receptor (Homo sapiens, UniProt P35372); test: Agonist activity at human mu opioid receptor expressed in CHO-K1 cells assessed as inhibition of forskolin-stimulated cAMP accumulation at 10 uM by HitHunter assay based luminescence analysis
T2 sequence (P35372 whole entry): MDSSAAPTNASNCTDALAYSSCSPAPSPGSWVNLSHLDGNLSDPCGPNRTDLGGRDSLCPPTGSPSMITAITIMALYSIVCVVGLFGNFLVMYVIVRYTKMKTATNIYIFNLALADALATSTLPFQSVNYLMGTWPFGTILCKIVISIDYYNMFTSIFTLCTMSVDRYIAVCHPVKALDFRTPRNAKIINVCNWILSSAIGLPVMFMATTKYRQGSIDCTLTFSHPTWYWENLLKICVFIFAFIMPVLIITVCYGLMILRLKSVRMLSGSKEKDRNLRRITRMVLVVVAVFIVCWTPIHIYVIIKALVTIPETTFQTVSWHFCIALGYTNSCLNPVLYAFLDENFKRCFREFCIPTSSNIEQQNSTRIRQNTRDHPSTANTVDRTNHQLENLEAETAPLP

Mu-type opioid receptor [4] = biological target: T2, Mu-type opioid receptor; test: Agonist activity at human mu opioid receptor expressed in CHO-K1 cells assessed as inhibition of forskolin-stimulated cAMP accumulation by HitHunter assay based luminescence analysis relative to control
[5] = biological target: T1, Kappa-type opioid receptor; test: Agonist activity at human kappa opioid receptor expressed in CHO-K1 cells assessed as inhibition of forskolin-stimulated cAMP accumulation at 10 uM by HitHunter assay based luminescence analysis
[6] = biological target: Delta-type opioid receptor (Homo sapiens) (UniProt P41143); test: Agonist activity at human delta opioid receptor expressed in CHO-K1 cells assessed as inhibition of forskolin-stimulated cAMP accumulation at <1 uM by HitHunter assay based luminescence analysis
Sequence of Delta-type opioid receptor (Homo sapiens) (P41143 whole entry): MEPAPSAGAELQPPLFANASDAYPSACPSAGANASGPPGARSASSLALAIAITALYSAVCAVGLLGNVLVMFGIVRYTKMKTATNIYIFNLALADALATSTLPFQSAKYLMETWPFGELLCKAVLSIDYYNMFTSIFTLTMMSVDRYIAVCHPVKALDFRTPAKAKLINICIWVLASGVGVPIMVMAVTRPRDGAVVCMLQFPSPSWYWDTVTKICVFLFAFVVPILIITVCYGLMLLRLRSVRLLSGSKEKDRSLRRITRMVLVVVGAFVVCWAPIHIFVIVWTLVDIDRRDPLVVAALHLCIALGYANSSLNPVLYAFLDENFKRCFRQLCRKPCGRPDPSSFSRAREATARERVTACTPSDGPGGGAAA

`C/C=C1/C[N+]2(CC3CC3)CC[C@]34C(=C(C(=O)OC)[C@H]1C[C@@H]32)Nc1ccccc14` (some centres not stated) was tested, and the EC50 [1] was 4700 nM, the Emax ([2]; filed as agonist) was 113% and the Activity (Mu-type opioid receptor [3]) was “inactive”. For the same compound, the Emax (Mu-type opioid receptor [4]) was < 10%.
With `C/C=C1/CN2CC[C@]34c5ccccc5N[C@@H]3[C@H](C(=O)OC)[C@H]1C[C@H]24` the Activity [5] was “inactive”, the Emax [2] was < 10% and the Activity (Mu-type opioid receptor [3]) was “inactive”. For the same compound, the Emax (Mu-type opioid receptor [4]) was < 10%.
For `C/C=C1/C[N+]2(CCC)CC[C@]34C(=C(C(=O)OC)[C@H]1C[C@@H]32)Nc1ccccc14` (some centres not stated), the Activity [5] was “inactive”, the Emax [2] was < 10% and the Activity (Mu-type opioid receptor [3]) was “inactive”. For the same compound, the Emax (Mu-type opioid receptor [4]) was < 10%.
With `C/C=C1/C[N+]2(CC3CC3)CC[C@]34C(=C(C(=O)OC)[C@H]1C[C@@H]32)Nc1ccc(Br)cc14` (some centres not stated) the Emax ([2]; filed as agonist) was 94%, the Activity (Mu-type opioid receptor [3]) was “inactive” and the Emax (Mu-type opioid receptor [4]) was < 10%.
For `C/C=C1/CN2CC[C@]34C(=C(C(=O)OC)[C@H]1C[C@H]23)Nc1ccc(C#N)cc14`, the EC50 [1] was 81 nM, the Emax ([2]; filed as agonist) was 102% and the Activity (Mu-type opioid receptor [3]) was “inactive”. For the same compound, the Emax (Mu-type opioid receptor [4]) was < 10% and the Activity [6] was “inactive”.
With `C/C=C1/CN2CC[C@]34c5cc(I)ccc5NC3C(C(=O)OC)[C@H]1C[C@H]24` (some centres not stated) the EC50 [1] was 24 nM, the Emax ([2]; filed as agonist) was 100% and the Activity (Mu-type opioid receptor [3]) was “inactive”. For the same compound, the Emax (Mu-type opioid receptor [4]) was < 10% and the Activity [6] was “inactive”.
For `COC(=O)C1=C2Nc3ccccc3[C@@]23CCN2C[C@@](O)([C@@H](C)O)[C@@H]1C[C@H]23`, the Activity [5] was “inactive”, the Emax [2] was < 10% and the Activity (Mu-type opioid receptor [3]) was “inactive”. The Emax (Mu-type opioid receptor [4]) was < 10%.
`C=CC[N+]12CC[C@]34C(=C(C(=O)OC)[C@@H](C[C@@H]31)/C(=C\C)C2)Nc1ccccc14` (some centres not stated) was tested, and the Activity [5] was “inactive”, the Emax [2] was < 10% and the Activity (Mu-type opioid receptor [3]) was “inactive”. The Emax (Mu-type opioid receptor [4]) was < 10%.
In the case of `C=CC[N+]12CC[C@]34C(=C(C(=O)OC)[C@@H](C[C@@H]31)/C(=C\C)C2)Nc1ccc(Br)cc14` (some centres not stated), the EC50 [1] is reported as 650 nM, the Emax ([2]; filed as agonist) is reported as 100% and the Activity (Mu-type opioid receptor [3]) is reported as “inactive”. The Emax (Mu-type opioid receptor [4]) was < 10%.
`C/C=C1/C[N+]2(C)CC[C@]34C(=C(C(=O)OC)[C@H]1C[C@@H]32)Nc1ccccc14` (some centres not stated) was tested, and the Activity [5] was “inactive”, the Emax [2] was < 10% and the Activity (Mu-type opioid receptor [3]) was “inactive”. For the same compound, the Emax (Mu-type opioid receptor [4]) was < 10%.
With `COC(=O)C1=C2Nc3ccccc3[C@@]23CCN2C[C@@](O)(C(C)=O)[C@@H]1C[C@H]23` the Activity [5] was “inactive”, the Emax [2] was < 10% and the Activity (Mu-type opioid receptor [3]) was “inactive”. The Emax (Mu-type opioid receptor [4]) was < 10%.
`C/C=C1/C[N+]2(C)CC[C@]34C(=C(C(=O)OC)[C@H]1C[C@@H]32)Nc1ccc(Br)cc14` (some centres not stated) was tested, and the EC50 [1] was 940 nM, the Emax ([2]; filed as agonist) was 102% and the Activity (Mu-type opioid receptor [3]) was “inactive”. The Emax (Mu-type opioid receptor [4]) was < 10%.
`C/C=C1/CN2CC[C@]34C(=C(C(=O)OC)[C@H]1C[C@H]23)Nc1ccc(-c2ccccc2)cc14` was tested, and the Emax ([2]; filed as agonist) was 101%, the Emax (Mu-type opioid receptor [4]; filed as agonist) was 106% and the Activity [6] was “inactive”.
With `C/C=C1/CN2CC[C@]34c5cc(Br)ccc5NC3C(C(=O)OC)[C@H]1C[C@H]24` (some centres not stated) the Emax ([2]; filed as agonist) was 100%.
In the case of `C/C=C1/CN2CC[C@]34C(=C(C(=O)OC)[C@H]1C[C@H]23)Nc1ccc(-c2ccsc2)cc14`, the Emax ([2]; filed as agonist) is reported as 104%, the Emax (Mu-type opioid receptor [4]; filed as agonist) is reported as 107% and the Activity [6] is reported as “inactive”.
In the case of `C/C=C1/C[N+]2(Cc3ccccc3)CC[C@]34C(=C(C(=O)OC)[C@H]1C[C@@H]32)Nc1ccccc14` (some centres not stated), the Activity [5] is reported as “inactive”, the Emax [2] is reported as < 10% and the Emax (Mu-type opioid receptor [4]; filed as agonist) is reported as 112%.
In the case of `COC(=O)C1=C2Nc3ccc(Br)cc3[C@@]23CCN2C[C@@](O)([C@@H](C)O)[C@@H]1C[C@H]23`, the Activity [5] is reported as “inactive”, the Emax [2] is reported as < 10% and the Activity (Mu-type opioid receptor [3]) is reported as “inactive”. For the same compound, the Emax (Mu-type opioid receptor [4]) was < 10%.
In the case of `CC[C@@H]1CN2CC[C@]34c5ccccc5N[C@@H]3[C@H](C(=O)OC)[C@H]1C[C@H]24`, the Activity [5] is reported as “inactive”, the Emax [2] is reported as < 10% and the Activity (Mu-type opioid receptor [3]) is reported as “inactive”. The Emax (Mu-type opioid receptor [4]) was < 10%.
For `CC[C@@H]1CN2CC[C@]34C(=C(C(=O)OC)[C@H]1C[C@H]23)Nc1ccccc14`, the EC50 [1] was 1600 nM, the Emax ([2]; filed as agonist) was 99% and the Activity (Mu-type opioid receptor [3]) was “inactive”. For the same compound, the Emax (Mu-type opioid receptor [4]) was < 10%.
For `C[C@@H](NC(=O)[C@@H](N)Cc1ccc(O)cc1)C(=O)NCC(=O)N(C)[C@@H](Cc1ccccc1)C(=O)NCCO`, the Activity [5] was “inactive”.
